Assay results published in patent publication US9540646B2, “Cellular targets for HIV infection” (priority 2012, dated 2017).
Entries after “also recorded” stand apart in the source; their conditions may differ. Like-named read-outs stand apart in the source and are kept apart here.

Columns and labels:
Panx1 hemichannels [1] = biological target: T1, Panx1 hemichannels (Homo sapiens, UniProt Q96RD7); test: Etd uptake in CD4+ T lymphocytes induced by chemokines or gp120; format: cell-based; set-up: endogenous in cells; host or cells: primary human PBMCs and purified CD4+ T lymphocytes from leukopacks (New York Blood Center); conditions: gp120 1 μg/ml
T1 sequence (Q96RD7 whole entry): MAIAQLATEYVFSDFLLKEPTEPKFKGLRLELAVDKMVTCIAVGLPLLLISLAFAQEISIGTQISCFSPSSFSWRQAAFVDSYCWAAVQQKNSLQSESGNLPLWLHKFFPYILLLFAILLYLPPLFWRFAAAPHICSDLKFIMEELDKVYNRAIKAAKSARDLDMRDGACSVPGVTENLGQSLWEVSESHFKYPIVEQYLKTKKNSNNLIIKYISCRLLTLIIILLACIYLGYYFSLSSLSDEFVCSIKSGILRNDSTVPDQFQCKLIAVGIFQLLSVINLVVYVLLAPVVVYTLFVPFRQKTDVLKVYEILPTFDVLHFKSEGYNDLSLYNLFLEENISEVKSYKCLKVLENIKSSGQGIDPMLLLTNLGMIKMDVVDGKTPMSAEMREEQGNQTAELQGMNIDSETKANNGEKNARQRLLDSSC
Description: (§1) Dye uptake and time lapse fluorescence imaging. To characterize the functional state of Panx1 hemichannels, dye uptake experiments using ethidium (Etd) bromide were performed as previously described (18, 19). Cells were washed twice in Hank's balanced salt solution and then exposed to Locke's solution (containing: 154 mM NaCl, 5.4 mM KCl, 2.3 mM CaCl2, 5 mM HEPES and pH 7.4) with 5 μM Etd and time lapse microscopy was performed. Phase-contrast and fluorescence microscopy with time-lapse imaging were used to record cell appearance and fluorescence intensity changes in each condition. Fluorescence was recorded every 30 s. The NIH ImageJ program was used for off-line image analysis and fluorescence quantification. For data representation and calculation of Etd uptake slopes, the average of two independent background fluorescence intensity measurements (FB, expressed as arbitrary units, AU) was subtracted from fluorescence intensity′ in each cell (F1). Results of this calculation (F1-FB), for at least 20 cells, were averaged and plotted against time (expressed in minutes). Slopes were calculated using Microsoft Excel software and expressed as AU/min. Microscope and camera settings remained the same in all experiments. Dead cells were clearly identified during the time lapse microscopy due to their non specific Etd uptake (not inhibited by hemichannel blockers) and were not quantified.

Panx1 hemichannels [2] = biological target: T1, Panx1 hemichannels; test: HIV-induced ethidium (Etd) dye uptake, time lapse fluorescence imaging, in PBMCs and CD4+ T lymphocytes; format: cell-based; set-up: endogenous in cells; host or cells: primary human PBMCs and purified CD4+ T lymphocytes from leukopacks (New York Blood Center); conditions: 5 min and 72 h; for Etd uptake (rate) induced by the virus: PBMCs exposed to HIVADA, CD4+ T lymphocytes exposed to HIVADA, HIVBal or HIVLAI, Prob 500 μM, 10Panx1 200 μM, scrPanx1 200 μM, La3+ 200 μM, Cx43E2 1:500, siRNA 10 nM
Description: Isolation of human PBMCs and CD4+ T lymphocytes. Anticoagulated blood was obtained from leukopacks obtained from the New York Blood Center as described before (16). PBMCs were isolated by under-layering with Ficoll-Paque (Amersham Bioscience, Uppsala, Sweden) according to the procedure described by the manufacturer. Purified PBMC used in these studies were ˜10% monocytes and ˜90% lymphocytes and other hematopoietic cells, as determined by incubation with premixed human CD45 and CD14 monoclonal antibodies conjugated to FITC and PE, respectively (1:50, Caltag Laboratories, Burlingame, Calif.), followed by fluorescence-activated cell sorter analysis (FACS) as we previously described (17). To obtain a pure population of CD4+ T lymphocytes, monocytes were removed from PBMCs by using CD14 coupled magnetic beads and subsequently CD4+ T lymphocytes were isolated with CD4 coupled magnetic beads (Stem Cell Technologies, Vancouver, BC, Canada).
HIV-infection and quantification of replication. Cell-free viral inocula were obtained from the National Institutes of Health AIDS Research and Reference Reagent Program. Three isolates were used: HIVADA, and HIVBal, two R5 isolates and HIVLAI, an X4 isolate, PBMCs and purified CD4+ T lymphocytes were isolated and activated with phytohemagglutinin (PHA; 5 μg/ml) plus interleukin (IL-2; 5%) in RPMI 1640 for 48 h in polypropylene tubes at a density of 2×10^6 […] PBMCs and CD4+ T lymphocytes were then infected by incubation for 24 h with viral stocks of HIVADA (20 ng p24/ml/1×10^6 cells), HIVLAI (20 ng p24/ml/1×10^6 cells) or HIVBal (0.001 MOI), washed thoroughly, resuspended in fresh medium, and maintained in polypropylene tubes. Uninfected control cells were activated with PHA plus IL-2 for 48 h, washed, and maintained in polypropylene tubes in fresh media without any virus. To determine the levels of HIV infection, the amount of HIV-p24 released into the medium was determined by ELISA (PerkinElmer, Boston, Mass.)
as §1

Macrophages = test: Cell viability of macrophages, live/dead assay; format: cell-based; conditions: 100 μM, 24 hours
From the text: Cells were imaged using a Zeiss AxioObserver.D1 with an LD Plan-Neofluar 20×/0.4 air objective lens. Images were collected at room temperature through a Zeiss AxioCam MRm camera using Axiovision software.

[3] = system: β-lactamase containing HIVBaL; test: HIV Entry Assay (β-lactamase / CCF2-AM) in primary human macrophages; format: cell-based, Human immunodeficiency virus-1 (HIV); conditions: for reduction in viral entry (percentage of cells with viral entry) relative to HIV only: 100 μM, 4 hours, MOI 0.001-0.01, oATP N=5, others N=3
Description: HIV Entry Assay: Primary human macrophages were cultured in black 96-well plates with a clear bottom (Corning Inc., Corning, N.Y.) at a density of 43,000 cells per well. After 7-8 days in culture, cells were inoculated with β-lactamase containing HIVBaL at a multiplicity of infection (MOI) of 0.01, 0.005, or 0.001 in the presence or absence of the purinergic receptor inhibitors oATP, NF 279, A-740003, or MRS 2179 for 4 hours. Beta-lactamase containing HIVBaL was generated as described previously (27). Briefly, HEK-293T cells were transfected using calcium phosphate with two plasmids, one containing the HIVBaL genome, pWT/BaL (NIH repository), the other containing β-lactamase fused to REV vpr, pMM310 (NIH repository). Cells were transfected for 16 hours and then supernatant was collected 24 and 48 hours following transfection. […] Viral stocks were generated by sucrose gradient purification of the transfection supernatants.
Alter viral inoculation of primary human macrophages, cells were washed with phenol red-free DMEM (Gibco) then loaded with CCF2-AM for 6 hours at room temperature using the GeneBLAzer In Vivo Detection Kit (Invitrogen, Carlsbad, Calif.). CCF2-AM fluoresces green due to an internal fluorescence resonance energy transfer, but when cleaved by β-lactamase, this interaction is lost and the molecule fluoresces blue. Cells were imaged using an Olympus IX70 with a Plan 10×/0.25 air objective lens. Images were collected at room temperature through an Olympus E-620LS camera attached to the microscope through an OM adapter MF-1. Images were collected directly onto a memory card and there was no image processing following image collection. Images were collected for 8 fields in 4 separate wells per condition and percentage of cells positive for viral entry was determined by counting the number of blue cells (cells that virus had entered) as compared to the total number of blue and green cells.

HIVADA = test: HIV replication in primary human macrophages, HIV p24 ELISA; format: cell-based, Human immunodeficiency virus-1 (HIV); conditions: for inhibition at 100 µM: Human immunodeficiency virus 1, Macrophage
From the text: Monocyte isolation and macrophage culture: Human monocytes were isolated from leukopaks obtained from the New York Blood Center. Peripheral blood mononuclear cells (PBMCs) were isolated by differential centrifugation using a Ficoll gradient (GE Healthcare, Piscataway, N.J.) and CD14 positive cells were isolated from PBMCs using CD14 monoclonal antibodies that were then bound by magnetic nanoparticles and separated using a magnetic field (Stem Cell Technologies, Vancouver, BC, Canada). Isolated CD14 positive cells were cultured adherently for 6 days in the presence of 10 ng/ml macrophage-colony stimulating factor (PeproTech, Rocky Hill, N.J.) in RPMI 1640 with 10% FBS, 5% human AB serum, 1% P/S, and 10 mM HEPES to differentiate the cells into macrophages.
(§2) HIV replication: After 6 days in culture, macrophages in 48-well plates at a density of 10^5 cells per well were inoculated with 2-20 ng/ml HIVADA, 2 ng/ml HIVYU-2, or 0.2 ng/ml HIVBaL for 24 hours in the presence or absence of purinergic receptor inhibitors. 5 wells were inoculated per condition. After 24 hours, cells were washed with PBS and then cultured with media. Supernatants were collected and medium was changed every 24 hours until 7 days post inoculation (d.p.i.). When the inhibitors oATP, A-740003, MRS 2179, NF 279, BBG, or suramin, were used, they were added when the medium was changed every 24 hours. Viral replication was analyzed by HIV p24 ELISA (Advanced Bioscience Laboratories, Kensington, Md.) according to the manufacturer's instructions

HIV = HIV replication in macrophage cultures, strain not named; format: cell-based; conditions: apyrase data; concentration not given
Description: as §2

Panx1 hemichannels [4] = biological target: T1, Panx1 hemichannels; test: HIV-induced Etd uptake in CD4+ T lymphocytes by flow cytometry (FACS); format: cell-based; set-up: endogenous in cells; host or cells: primary human PBMCs and purified CD4+ T lymphocytes from leukopacks (New York Blood Center); conditions: HIVADA, 5 min and 72 h
Description: Flow cytometry. To measure Etd uptake in CD4+ T cell populations FACS analysis was performed of cells under control conditions or after HIV exposure at several time points. Etd uptake experiments were performed in CD4+ lymphocytes (3-5×10^5), and after the respective time of Etd uptake, cells were fixed with 2% paraformaldehyde for 30 min at room temperature, incubated with 1% BSA in PBS for 30 min and stained with CD4 antibody for 30 min at 4° C. For analyses of Etd positive populations, 10,000 events were acquired on a BD FACS Canto II and analyzed using FlowJo (Ashland, Oreg.) software as we previously described (17, 20).

Compound: RANTES/CCL5: a physiological ligand for CCR5
- Etd uptake after single addition of chemokine or gp120 (Panx1 hemichannels [1]; chemokines 100 ng/ml, time course): fast and extremely transient increase (only 5 min)

Compound: [La+3] [La^3+, Lanthanum]
- Etd uptake (rate) induced by the virus (Panx1 hemichannels [2]): did not cause changes
- Etd uptake (rate) induced by the virus (Panx1 hemichannels [2]; listed as Lanthanum): did not affect

Compound: CNc1ncnc2c1ncn2[C@H]1C[C@H](OP(=O)([O-])[O-])[C@@H](COP(=O)([O-])[O-])O1.[Na+].[Na+].[Na+].[Na+] [MRS 2179, 2′-deoxy-N6-methyladenosine 3′,5′-bisphosphate tetrasodium salt]
- cell viability (live/dead assay) (Macrophages): did not alter cell viability; also recorded: None of the antagonist caused any decrease in cell viability
- reduction in viral entry (percentage of cells with viral entry) relative to HIV only [3]: did not change
- inhibition at 100 µM (HIVADA; 100 μM, 3 independent donors, NF 279 on days 2-7 post inoculation, read-out: inhibition of HIV p24 production as compared to HIV infected cultures without the inhibitors): 60 to 70%

Compound: apyrase
- reduction in HIV entry in macrophages ([3]; apyrase data, concentration not given): no reduction
- reduction in HIV replication in macrophages (HIV): no reduction

Compound: Cc1ccc(C(=O)Nc2ccc(S(=O)(=O)O)c3cc(S(=O)(=O)O)cc(S(=O)(=O)O)c23)cc1NC(=O)c1cccc(NC(=O)Nc2cccc(C(=O)Nc3cc(C(=O)Nc4ccc(S(=O)(=O)O)c5cc(S(=O)(=O)O)cc(S(=O)(=O)O)c45)ccc3C)c2)c1 [suramin]
- cell viability (live/dead assay) (Macrophages): None of the antagonist caused any decrease in cell viability; also recorded: without altering cell viability
- inhibition of HIVADA replication (HIVADA; suramin, every time point tested, N=3 donors): 100%

Compound: Cc1ccc(-c2ccc3c(c2)C=C(C(=O)Nc2ccc(C[N+](C)(C)C4CCOCC4)cc2)CCC3)cc1.[Cl-] [TAK-779]
- Etd uptake induced by R5 viruses (Panx1 hemichannels [2]; CD4+ T lymphocytes, HIVADA and HIVBal, TAK-779 100 ng/ml): reduced

Compound: O=C(Nc1ccc(C(=O)Nc2ccc(C(=O)Nc3ccc(S(=O)(=O)[O-])c4cc(S(=O)(=O)[O-])cc(S(=O)(=O)[O-])c34)cc2)cc1)Nc1ccc(C(=O)Nc2ccc(C(=O)Nc3ccc(S(=O)(=O)[O-])c4cc(S(=O)(=O)[O-])cc(S(=O)(=O)[O-])c34)cc2)cc1.[Na+].[Na+].[Na+].[Na+].[Na+].[Na+] [NF 279, 8,8′-[Carbonylbis(imino-4,1-phenylenecarbonylimino-4,1-phenylenecarbonylimino)]bis-1,3,5-naphthalenetrisulfonic acid hexasodium salt]
- cell viability (live/dead assay) (Macrophages): did not alter cell viability; also recorded: None of the antagonist caused any decrease in cell viability
- reduction in viral entry (percentage of cells with viral entry) relative to HIV only [3]: 98%
- inhibition of HIV p24 production as compared to HIV infected cultures without the inhibitors (HIVADA; 100 μM, 3 independent donors, NF 279 on days 2-7 post inoculation): 90-98%

Compound: COc1ccc(CC(=O)NC(N=C(NC#N)Nc2cccc3ncccc23)C(C)(C)C)cc1OC (stereo not drawn) [A-740003, N-[1-[[(Cyanoamino)(5-quinolinylamino)methylene]amino]-2,2-dimethylpropyl]-3,4-dimethoxybenzeneacetamide]
- cell viability (live/dead assay) (Macrophages): did not alter cell viability; also recorded: None of the antagonist caused any decrease in cell viability
- reduction in viral entry (percentage of cells with viral entry) relative to HIV only [3]: did not change
- inhibition at 100 µM (HIVADA; read-out: inhibition of HIV p24 production relative to HIV plus the vehicle DMSO): 70 to 91%

Compound: CCCN(CCC)S(=O)(=O)c1ccc(C(=O)O)cc1 [probenecid]
- Etd uptake (rate) induced by the virus (Panx1 hemichannels [2]): completely blocked; also recorded: completely reduced
- gp120-induced Etd uptake, in presence of blockers (Panx1 hemichannels [1]; 5 min): inhibited
- Etd uptake induced by the virus, analyzed by FACS (Panx1 hemichannels [4]): reduced Etd uptake
- Etd uptake induced by the virus, analyzed by FACS (Panx1 hemichannels [4]; listed as Probenecid): reduced to control conditions (100%)
